Source: patent EP0533240A2, “Substituted amine derivatives of piperazinylcamphorsulfonyl oxytocin antagonists” (MERCK & CO. INC., priority 1991, dated 1993)

Biological target: T1, uterine OT receptors (Rattus norvegicus, UniProt P70536)
T1 construct: from tissue; host or cells: uterus of DES-treated rats, crude membrane preparation
T1 sequence (P70536 1-388): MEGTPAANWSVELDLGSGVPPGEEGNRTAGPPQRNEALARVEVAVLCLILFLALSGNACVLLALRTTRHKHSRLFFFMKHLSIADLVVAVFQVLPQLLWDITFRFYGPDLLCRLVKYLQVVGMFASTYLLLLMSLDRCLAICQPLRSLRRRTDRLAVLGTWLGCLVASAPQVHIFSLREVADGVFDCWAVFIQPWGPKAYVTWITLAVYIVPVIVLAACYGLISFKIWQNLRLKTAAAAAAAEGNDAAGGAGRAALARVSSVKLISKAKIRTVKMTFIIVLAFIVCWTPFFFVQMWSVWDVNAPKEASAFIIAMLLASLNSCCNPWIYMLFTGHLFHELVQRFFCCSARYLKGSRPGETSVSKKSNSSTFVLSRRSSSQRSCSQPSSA
Experiment: [3H]Oxytocin radioligand binding assay, crude uterine membrane preparation
Set-up: species or system rats
Conditions: competition with 1 nM [3H]OT, 60 minutes, 22 °C, membranes of uteri from DES-treated rats
Protocol: Oxytocin (OT)([tyrosyl, 3,5-[^3H]OT; 30-60 Ci/mmol; New England Nuclear. Boston, MA) to uterine OT receptors was based on an assay*using a crude membrane preparation of uteri taken from diethylstilbestrol dipropionate (DES)-treated (0.3 mg/kg, ip; 18-24) rats. Competetion studies were conducted at equilibrium (60 minutes; 22 °C) using 1 nM[^3H]OT in the following assay buffer: 50 mM Tris-HCI, 5 mM MgCl2, and 0.1% BSA, pH 7.4. Nonspecific binding (10% of the total binding) was determined using 1µM unlabeled OT and the binding reaction was terminated by filtration through glass fiber filters using a cell harvester (model 7019, Skatron, Inc., Sterling, VA).

Q: How did the IC50 turn out when `Cc1ccccc1N1CCN(S(=O)(=O)CC23CCC(CC2(O)C(C)CNC(=O)C2CCCN2CC(=O)O)C3(C)C)CC1` (stereo not drawn) [Example 53] was run?
A: Its IC50 is 28 nM.

Q: Which IC50 does the source give for `COC(=O)CCN(CCC(=O)OC)CC(C)C1(O)CC2CCC1(CS(=O)(=O)N1CCN(c3ccccc3C)CC1)C2(C)C` (stereo not drawn) [Example 11, 1-((7,7-dimethyl-2-exo-hydroxy-2-endo-2-(1-bis-(2-methoxycarbonylethyl)amino)propylbicyclo(2.2.1)heptan-1-yl)methanesulfonyl)-4-(2-methylphenyl)piperazine] here?
A: Its IC50 is 54 nM.

Q: With `Cc1ccccc1N1CCN(S(=O)(=O)CC23CCC(CC2NC(=O)Cc2c[nH]cn2)C3(C)C)CC1` (stereo not drawn) [Example 43] as the molecule, how does the IC50 read?
A: The IC50 was 110 nM.
